11 compounds from ChEMBL document CHEMBL5550194, “Design and synthesis of phosphoryl-substituted steroidal pyridazines (Pho-STPYRs) as potent estrogen receptor alpha inhibitors: targeted treatment of hormone-dependent breast cancer cells” (RSC Med Chem, 2024) can be followed below.

Broadly, the IC50 is the concentration that gives 50% inhibition.

One assay deals with MCF7. As to the kind of experiment: Antiproliferative activity against human MCF7 cells assessed as inhibition of cell growth incubated for 72 hrs by MTT assay. The assay is classed as functional, cell-based. Particulars: MCF7, 72 h.
A further assay has as its system MDA-MB-231. Nature of the assay: Antiproliferative activity against human MDA-MB-231 cells assessed as inhibition of cell growth incubated for 72 hrs by MTT assay. The assay is classed as functional, cell-based. The note with it: MDA-MB-231, 72 h. For orientation: Tetrazolium dyes change colour on reduction, which living cells bring about.

Molecules are shown by their SMILES. Where only a bound is given, the exact number is not on record here.

`CC(C)(C)NP(=O)(NC(C)(C)C)c1nncc2c1[C@@]1(C)CC[C@H]3[C@@H](CC=C4C[C@@H](O)CC[C@@]43C)[C@@H]1C2`: the IC50 was 24.7 µM with MCF7 and over 25 µM in the assay on MDA-MB-231.

On to `CC(=O)O[C@H]1CC[C@@]2(C)C(=CC[C@@H]3[C@@H]2CC[C@]2(C)c4c(cnnc4P(=O)(NC(C)(C)C)NC(C)(C)C)C[C@@H]32)C1`, for which the half-inhibitory concentration (IC50) in the assay on MCF7 is 16.4 µM; in the assay with MDA-MB-231, over 25 µM.

As for `CC/C(=C(\c1ccc(O)cc1)c1ccc(OCCN(C)C)cc1)c1ccccc1` [AFIMOXIFENE], the IC50 with MCF7 turned out to be 5.2 µM.

As for `COc1ccc2c(c1)CC[C@@H]1[C@@H]2CC[C@]2(C)c3c(cnnc3P(=O)(c3ccccc3)c3ccccc3)C[C@@H]12`, the IC50 is 8.6 µM in the assay on MCF7 and 13.5 µM with MDA-MB-231.

Regarding `C[C@]12CCC(Cl)CC1=CC[C@@H]1[C@@H]2CC[C@]2(C)c3c(cnnc3P(=O)(Nc3ccccc3)Nc3ccccc3)C[C@@H]12` (stereo partly specified), the 50% inhibitory concentration (IC50) with MCF7 and in the assay with MDA-MB-231 was over 25 µM each time.

With `C[C@]12CC[C@@H]3c4ccc(O)cc4CC[C@H]3[C@@H]1Cc1cnnc(P(=O)(Nc3ccccc3)Nc3ccccc3)c12`, the IC50 with MCF7 and with MDA-MB-231 was over 25 µM in each case.

Regarding `COc1ccc2c(c1)CC[C@@H]1[C@@H]2CC[C@]2(C)c3c(cnnc3P(=O)(NC(C)(C)C)NC(C)(C)C)C[C@@H]12`, the figures for the half-maximal inhibitory concentration (IC50) in the assay on MCF7 and in the assay on MDA-MB-231 were 12.7 µM and 16.7 µM, respectively.

For `COc1ccc2c(c1)CC[C@@H]1[C@@H]2CC[C@]2(C)c3c(cnnc3P(=O)(Nc3ccccc3)Nc3ccccc3)C[C@@H]12`, the IC50 in the assay with MCF7 and with MDA-MB-231 was over 25 µM in each case.

For `C[C@]12CC[C@H]3[C@@H](CCC4Cc5c(cnnc5P(=O)(Nc5ccccc5)Nc5ccccc5)C[C@@]43C)[C@@H]1CC[C@@H]2O` (stereo partly specified), the results for the IC50 with MCF7 and in the assay with MDA-MB-231 were 9.3 µM and 16.5 µM, respectively.

Turning to `CC(=O)O[C@H]1CC[C@@]2(C)C(=CC[C@@H]3[C@@H]2CC[C@]2(C)c4c(cnnc4P(=O)(Nc4ccccc4)Nc4ccccc4)C[C@@H]32)C1`, the IC50 in the assay on MCF7 and in the assay with MDA-MB-231 was over 25 µM throughout.

Regarding `C[C@]12CC[C@H]3[C@@H](CCC4Cc5c(cnnc5P(=O)(c5ccccc5)c5ccccc5)C[C@@]43C)[C@@H]1CC[C@@H]2O` (stereo partly specified), the figures for the half-maximal inhibitory concentration (IC50) in the assay on MCF7 and in the assay with MDA-MB-231 were 7.1 µM and 8.9 µM, respectively.
